Results published in publication PMC9964404, “Molecular Modeling and In Vitro Evaluation of Piplartine Analogs against Oral Squamous Cell Carcinoma” (Molecules, 2023).
Where two headings read alike, the source gives them in different places.

Experiments:
[1] = system: SCC9 cells; assay: MTT cell viability (cytotoxicity) assay, SCC9; assay type: cell-based, human
Protocol: (§1) SCC cells (SCC9 and SCC4), derived from human tongue OSCC, were obtained by (ATCC® CRL-1629 and CRL-1624) and maintained in DMEM/F12 1:1 medium (Dulbecco’s modified Eagle’s medium and Ham’s F12 medium, Gibco (Thermo Fisher, Waltham, MA, USA), supplemented with 10% (v/v) FBS (Fetal Bovine Serum; Invitrogen, Thermo Fisher, Waltham, MA, USA) and 400 ng/mL hydrocortisone (Sigma-AldrichCo., St. Louis, MO, USA). Primary normal gingival fibroblast human (PCS201 018TM) and other tumor cells B16-F10 (CRL-6475), Hep G2 (HB-8065), and HT-29 (HTB-38) were also obtained at ATCC and maintained in DMEM supplemented with 10% (v/v) FCS. Cells were cultured in a humidified environment containing 5% CO2 at 37 °C. For all experiments, the compounds were solubilized in DMSO (Sigma-Aldrich) for a final concentration of 100 mM. From this dilution, other concentrations were made to carry out the cell viability assay. Carboplatin (Fauldcarbo®; Libbs Farmacêutica, São Paulo, SP, Brazil) was used as a control antitumor compound.
(§2) The viability of cancer cells and primary fibroblasts was tested using the MTT assay as described in MACHADO et al., 2021 [49]. Briefly, cancer cells (5 × 10^3 cells/well) were plated in duplicate in a 96-well plate, as indicated. DMSO was diluted in culture medium at the same concentrations and was used as a negative control, representing 100% cell viability. After 48 h of treatment, cells were incubated for 3.5 h with 5 mg/mL of MTT reagent (3,4,5-dimethiazol-2,5-diphenyltetrazoliumbromide) (Sigma-Aldrich Co., St. Louis, MO, USA) diluted in culture medium. Subsequently, the formazan crystals were dissolved by MTT solvent (50% Methanol and 50% DMSO), and the absorbance was read at 560 nm using the EPOCH microplate spectrophotometer (BioTekInstruments, Winooski, VT, USA).
(§3) IC50 values for the MTT assay were obtained by non-linear regression using GraphPad Prism 5.0 software (GraphPad, San Diego, CA, USA) from at least three independent experiments. Data are presented as means, ± standard deviation (SD). A log dose response (inhibitor) vs. response curve using the least square method was used to determine the IC50 and SD of the data. The selectivity index was calculated as: S.I. = IC50 of the compound in fibroblasts/IC50 of the same compound in tumor cells.

[2] = system: Primary Gingival Fibroblast; assay: MTT cell viability assay, normal fibroblasts; assay type: cell-based, human; settings: 48 h treatment
Protocol: as §1, §2, §3

[3] = system: Oral Tumor Cells (SCC9, SCC4); assay: MTT cell viability assay, average of OSCC lines SCC9 and SCC4; assay type: cell-based, human
Protocol: as §1, §2
IC50 values for the MTT assay were obtained by non-linear regression using GraphPad Prism 5.0 software (GraphPad, San Diego, CA, USA) from at least three independent experiments. […] The selectivity index was calculated as: S.I. = IC50 of the compound in fibroblasts/IC50 of the same compound in tumor cells.

[4] = system: SCC4 cells; assay: MTT cell viability assay, SCC4; assay type: cell-based, human
Protocol: as §1, §2, §3

[5] = system: mouse erythrocytes; set-up: method as in PMID 16163826; settings: cited from earlier work
[6] = Homo sapiens, SCC-9, 48 h treatment, MTT, read-out: SCC9 IC50
[7] = Homo sapiens, SCC-9, 48 h treatment, MTT, read-out: SCC9 IC50 (µg/mL)
[8] = Homo sapiens, Fibroblast, read-out: Primary Gingival Fibroblast IC50
[9] = Homo sapiens, Fibroblast, read-out: Primary Gingival Fibroblast IC50 (µg/mL)
[10] = Homo sapiens, SCC-9, 48 h treatment, MTT, N.D. = not determined, not toxic to SCC cells, read-out: SCC9 IC50 (class N.D.)
[11] = Homo sapiens, SCC-4, 48 h treatment, calculated as in Table 1, no cytotoxic effect in SCC4, read-out: SCC4 IC50 (class N.D.)

COc1cc(C(=O)OCc2ccc3ccccc3c2)cc(OC)c1OC [Compound 11, 2-Methylnaphthalene 3,4,5–trimethoxybenzoate]
IC50 [1, 6]: 310 µM
IC50 [1, 7]: 109 µg/mL
melting point: 84 to 85 °C
IC50 [2, 8]: 3410 µM
IC50 [2, 9]: 1200 µg/mL

COc1cc(C(=O)OC(c2ccccc2)c2ccccc2)cc(OC)c1OC [Compound 12, Diphenyl 3,4,5–trimethoxybenzoate]
IC50 [1, 6]: 830 µM
IC50 [1, 7]: 314 µg/mL
melting point: 57 to 58 °C

COc1cc(C(=O)NCc2ccc(O)cc2)cc(OC)c1OC [Compound 16, N-4-Hydroxybenzyl-3,4,5–trimethoxybenzamide]
IC50 [1, 10]: > 1000 µM
melting point: 227 to 229 °C

N.N.O=C([O-])C1(C(=O)[O-])CCC1.[Pt+2] [Carboplatin, reference compound]
IC50 [3]: 192 µM
SCC9 IC50 ([1]; 48 h treatment, MTT): 77.37 µg/mL
IC50 ([1]; 48 h treatment, MTT, read-out: SCC9 IC50): 208 µM
IC50 ([4]; 48 h treatment, read-out: SCC4 IC50): 175 µM
Primary Gingival Fibroblast IC50 [2]: 190.19 µg/mL
IC50 ([2]; read-out: Primary Gingival Fibroblast IC50): 512 µM

CCCCCCCCCCOC(=O)c1cc(OC)c(OC)c(OC)c1 [Compound 8, Decyl 3,4,5–trimethoxybenzoate]
IC50 [1, 6]: 955 µM
IC50 [1, 7]: 337 µg/mL
melting point: 49 to 50 °C

COc1cc(C(=O)NCc2ccc(Cl)cc2)cc(OC)c1OC [Compound 19, N-4-Chlorobenzyl-3,4,5–trimethoxybenzamide]
IC50 [1, 10]: > 1000 µM
melting point: 157 to 158 °C

COc1cc(C(=O)OCCC(C)C)cc(OC)c1OC [Compound 6, Isopentyl 3,4,5–trimethoxybenzoate]
IC50 [1, 6]: 160 µM
IC50 [1, 7]: 45.2 µg/mL
IC50 [2, 8]: 570 µM
IC50 [2, 9]: 161 µg/mL

COc1cc(C(=O)O)cc(OC)c1OC [3,4,5-Trimethoxybenzoic acid]
cytotoxic activity against SCC9 cells (in words) [1]: inactive
IC50 ([1]; Homo sapiens, SCC-9, 48 h, read-out: SCC9 IC50 (class N.D.)): > 1000 µM

CCCCCOC(=O)c1cc(OC)c(OC)c(OC)c1 [Compound 7, Pentyl 3,4,5–trimethoxybenzoate]
IC50 [1, 6]: 258 µM
IC50 [1, 7]: 72.7 µg/mL
IC50 [2, 8]: 418 µM
IC50 [2, 9]: 118 µg/mL

CCCCNC(=O)c1cc(OC)c(OC)c(OC)c1 [Compound 13, N-Butyl-3,4,5–trimethoxybenzamide]
IC50 [1, 6]: 469 µM
IC50 [1, 7]: 125 µg/mL
IC50 [4, 11]: > 1000 µM
melting point: 115 to 116 °C
IC50 [2, 8]: 2360 µM
IC50 [2, 9]: 631 µg/mL

COc1cc(C(=O)NCc2ccccc2)cc(OC)c1OC [Compound 17, N-Benzyl-3,4,5–trimethoxybenzamide]
IC50 [1, 10]: > 1000 µM
melting point: 138 to 139 °C

CCCOC(=O)c1cc(OC)c(OC)c(OC)c1 [Compound 3, Propyl 3,4,5–trimethoxybenzoate]
IC50 [1, 6]: 299 µM
IC50 [1, 7]: 76 µg/mL
IC50 [4, 11]: > 1000 µM
melting point: 34 to 35 °C
IC50 [2, 8]: 1260 µM
IC50 [2, 9]: 319 µg/mL

COc1cc(/C=C/C(=O)N2CCC=CC2=O)cc(OC)c1OC [piplartine]
hemolytic activity [5]: did not reveal hemolytic activity

COc1cc(C(=O)NCC(C)C)cc(OC)c1OC [Compound 14, N-Isobutyl-3,4,5–trimethoxybenzamide]
IC50 [1, 10]: > 1000 µM
melting point: 118 to 119 °C

COc1cc(C(=O)NC2CCCCC2)cc(OC)c1OC [Compound 15, N-Cyclohexyl-3,4,5–trimethoxybenzamide]
IC50 [1, 10]: > 1000 µM
melting point: 179 to 180 °C

CCOC(=O)c1cc(OC)c(OC)c(OC)c1 [Compound 2, Ethyl 3,4,5–trimethoxybenzoate]
cytotoxic activity against SCC9 cells (in words) [1]: no cytotoxic activity
IC50 [1, 10]: > 1000 µM
melting point: 53 to 54 °C

COC(=O)c1cc(OC)c(OC)c(OC)c1 [Compound 1, Methyl 3,4,5–trimethoxybenzoate]
IC50 [1, 6]: 858 µM
IC50 [1, 7]: 194 µg/mL

COc1cc(C(=O)OCc2ccc(Br)cc2)cc(OC)c1OC [Compound 10, 4-Bromo-benzyl 3,4,5–trimethoxybenzoate]
cytotoxic activity against SCC9 cells (in words) [1]: no cytotoxic activity
IC50 [1, 10]: > 1000 µM
melting point: 104 to 105 °C

CCCCOC(=O)c1cc(OC)c(OC)c(OC)c1 [Compound 5, Butyl 3,4,5–trimethoxybenzoate]
IC50 [1, 6]: 204 µM
IC50 [1, 7]: 54.8 µg/mL
IC50 [2, 8]: 510 µM
IC50 [2, 9]: 137 µg/mL

COc1cc(C(=O)OC(C)C)cc(OC)c1OC [Compound 4, Isopropyl 3,4,5–trimethoxybenzoate]
IC50 ([3]; Homo sapiens): 376 µM
IC50 [1, 6]: 373 µM
IC50 [1, 7]: 94.9 µg/mL
IC50 ([4]; Homo sapiens, SCC-4, 48 h treatment, read-out: SCC4 IC50): 454 µM
IC50 [2, 8]: 1800 µM
IC50 [2, 9]: 456 µg/mL

COc1cc(C(=O)NCc2ccc(F)cc2)cc(OC)c1OC [Compound 18, N-(4-Fluorobenzyl)-3,4,5–trimethoxybenzamide]
cytotoxic activity against SCC9 cells (in words) [1]: inactive
IC50 [1, 10]: > 1000 µM
melting point: 131 to 132 °C
